Melting point data for seven compounds are collected here from patent US7390896B2, “Cyclic malonamides as inhibitors of Aβ protein production” (Bristol-Myers Squibb Pharma Corporation, priority 2000, dated 2008).

The structures appear in SMILES notation.

For orientation: melting point means the temperature, or range, at which the solid turns liquid. As to `CN1C(=O)[C@@H](NC(=O)C2(NC(=O)Cc3cc(F)cc(F)c3)CCCCC2)N=C(c2ccccc2)c2ccccc21`, the melting point fell in the range of 126 to 129 °C. The figure for `CN1C(=O)[C@@H](NC(=O)C2(NC(=O)Cc3cc(F)cc(F)c3)CCCC2)N=C(c2ccccc2)c2ccccc21` is 112 to 117 °C. In the case of `CN1C(=O)[C@@H](NC(=O)C2(NC(=O)Cc3cc(F)cc(F)c3)CC2)N=C(c2ccccc2)c2ccccc21`, the melting point was in the range of 212 to 214 °C. In turn, `CN1C(=O)[C@@H](NC(=O)C2(NC(=O)CCC3CCCC3)CCCCC2)N=C(c2ccccc2)c2ccccc21` returned a melting point of 88 to 103 °C. `CC(C)CCC(=O)NC1(C(=O)NC2N=C(C(C)(C)C)c3ccccc3N(C)C2=O)CCCC1` (stereo not shown) [Example 61, N-((N-[5-(tert-Butyl)-1-methyl-2-oxo(3H-benzo[f]1,4-diazepin-3-yl)]carbamoyl)cyclopentyl)-4-methylpentanamide] displayed a melting point of 175 to 178 °C.

In the case of `CCCCN1C(=O)C(NC(=O)C2(NC(=O)CCC(C)C)CCCC2)N=C(C(C)(C)C)c2ccccc21` (stereo not shown) [Example 62, N-({N-[5-(tert-Butyl)-1-butyl-2-oxo(3H-benzo[f]1,4-diazepin-3-yl)]carbamoyl}cyclopentyl)-4-methylpentanamide], the melting point is 175 to 177 °C.

Turning to `CCCCC1=NC(NC(=O)C2(NC(=O)CCC(C)C)CCCC2)C(=O)N(Cc2ccccn2)c2ccccc21` (stereo not shown) [Example 63, N-({N-[5-Butyl-2-oxo-1-(2-pyridylmethyl)(3H-benzo[f]1,4-diazepin-3-yl)]carbamoyl}cyclopentyl)-4-methylpentanamide], the melting point was 63 to 67 °C.
